“And” between values parts separate entries of the source, which are not always exact repeats. Identical values can stand only once.
How the values were obtained:
[1] = system: CfBRISCΔNΔC; test: CfBRISCΔNΔC IQF DUB activity assay; format: biochemical, ant (Camponotus floridanus); details: for Normalised V0: CfBRISCΔNΔC
Description: IQF assays were performed in DUB reaction buffer containing 50 mM HEPES–NaOH pH 7.0, 100 mM NaCl, 0.1 mg ml^−1 BSA, 1 mM DTT and 0.03% v/v Brij-35. […] The final concentration of BRISC WT, all BRISC mutants, HsBRISCΔLoop, MmBRISC and DrBRISCΔNΔC was 1 nM. Other enzymes were tested at the following concentrations: 5 nM ARISC (FL), 10 nM CfBRISCΔNΔC, 250 nM AMSH* (ref. [43]), 500 nM USP2 and 1 μM trypsin (Sigma, 9002-07-7). For Michaelis–Menten experiments, 1 nM BRISC with 0–1 μM IQF K63-linked diubiquitin substrate was used. Michaelis–Menten analyses and Lineweaver–Burk plots were calculated using GraphPad Prism (version 9.0).
To assess enzymatic activity, BRISC complexes were diluted to concentrations between 1 nM and 50 nM. […] Then, 20-μl enzyme reactions were carried out in 384-well black flat-bottom low-flange plates (Corning, 35373). DUB activity was measured using IQF K63-linked diubiquitin (LifeSensors, DU6303) at 50 nM. Cleaved diubiquitin was monitored by measuring fluorescence intensity (excitation, 544 nm; emission, 575 nm; dichroic mirror, 560 nm). Fluorescence intensity was measured every minute for 30 min at 30 °C. Fluorescence intensity units were plotted against time to generate a linear reaction progress curve, where the initial velocity (V0) corresponds to the gradient of the curve (typically achieved within 15 min). IC50 values were calculated using the GraphPad Prism (version 9.0) built-in dose–response equation for inhibitor concentration versus response (variable slope).

[2] = target: T1, panel of 48 purified DUBs (Homo sapiens, UniProt Q70EL2); test: DUB selectivity profiling (DUBprofiler, ubiquitin–rhodamine(110)–glycine); format: biochemical; details: DUB USP45; screening concentration 5 μM; 5 µM
T1 construct: purchased Ubiquigent (DUBprofiler service)
T1 sequence (Q70EL2 whole entry): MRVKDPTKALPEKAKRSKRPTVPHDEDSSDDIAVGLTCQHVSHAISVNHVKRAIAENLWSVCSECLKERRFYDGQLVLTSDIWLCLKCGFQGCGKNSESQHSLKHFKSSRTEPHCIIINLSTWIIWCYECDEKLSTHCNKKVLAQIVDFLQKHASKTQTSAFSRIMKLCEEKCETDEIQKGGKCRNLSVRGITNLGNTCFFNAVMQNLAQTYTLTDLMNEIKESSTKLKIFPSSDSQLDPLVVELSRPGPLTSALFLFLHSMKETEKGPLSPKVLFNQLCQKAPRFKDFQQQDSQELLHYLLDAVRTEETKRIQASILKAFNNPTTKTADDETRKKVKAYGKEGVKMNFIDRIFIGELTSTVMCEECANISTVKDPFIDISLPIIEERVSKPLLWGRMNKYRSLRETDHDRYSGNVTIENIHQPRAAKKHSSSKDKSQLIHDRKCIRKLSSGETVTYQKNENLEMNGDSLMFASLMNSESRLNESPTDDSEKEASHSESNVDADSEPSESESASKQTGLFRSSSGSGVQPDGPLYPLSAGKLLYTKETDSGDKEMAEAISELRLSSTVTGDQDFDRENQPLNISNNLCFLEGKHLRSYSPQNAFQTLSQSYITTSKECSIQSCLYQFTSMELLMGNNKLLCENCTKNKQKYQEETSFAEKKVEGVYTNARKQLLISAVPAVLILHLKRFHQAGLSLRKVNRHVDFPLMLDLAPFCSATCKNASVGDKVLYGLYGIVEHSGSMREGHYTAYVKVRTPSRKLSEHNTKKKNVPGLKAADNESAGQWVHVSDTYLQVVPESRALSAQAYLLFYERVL
Description: (§1) Biochemical selectivity profiling (DUBprofiler) was performed by Ubiquigent with a panel of 48 purified DUBs and ubiquitin–rhodamine(110)–glycine as a fluorescent substrate.

[3] = target: T2, panel of 48 purified DUBs (Homo sapiens, UniProt Q7L8S5); test: as above; format: biochemical; details: DUB OTUD6A; screening concentration 5 μM; 5 µM
T2 construct: purchased Ubiquigent (DUBprofiler service)
T2 sequence (Q7L8S5 whole entry): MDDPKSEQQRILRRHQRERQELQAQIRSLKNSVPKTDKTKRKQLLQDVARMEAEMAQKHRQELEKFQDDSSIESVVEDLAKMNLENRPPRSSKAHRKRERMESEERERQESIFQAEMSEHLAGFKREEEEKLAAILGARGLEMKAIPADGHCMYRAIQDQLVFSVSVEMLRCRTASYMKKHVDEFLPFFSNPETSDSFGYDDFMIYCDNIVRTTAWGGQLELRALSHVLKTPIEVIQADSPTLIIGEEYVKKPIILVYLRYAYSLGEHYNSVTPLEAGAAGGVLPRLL
Description: as §1

[4] = target: T3, panel of 48 purified DUBs (Homo sapiens, UniProt Q8NB14); test: as above; format: biochemical; details: DUB USP38; screening concentration 5 μM; 5 µM
T3 construct: purchased Ubiquigent (DUBprofiler service)
Description: as §1

[5] = target: T4, panel of 48 purified DUBs (Homo sapiens, UniProt Q93008); test: as above; format: biochemical; details: DUB USP9X; screening concentration 5 μM; 5 µM
T4 construct: purchased Ubiquigent (DUBprofiler service)
Description: as §1

[6] = target: T5, panel of 48 purified DUBs (Homo sapiens, UniProt Q9UHP3); test: as above; format: biochemical; details: DUB USP25; screening concentration 5 μM; 5 µM
T5 construct: purchased Ubiquigent (DUBprofiler service)
T5 sequence (Q9UHP3 whole entry): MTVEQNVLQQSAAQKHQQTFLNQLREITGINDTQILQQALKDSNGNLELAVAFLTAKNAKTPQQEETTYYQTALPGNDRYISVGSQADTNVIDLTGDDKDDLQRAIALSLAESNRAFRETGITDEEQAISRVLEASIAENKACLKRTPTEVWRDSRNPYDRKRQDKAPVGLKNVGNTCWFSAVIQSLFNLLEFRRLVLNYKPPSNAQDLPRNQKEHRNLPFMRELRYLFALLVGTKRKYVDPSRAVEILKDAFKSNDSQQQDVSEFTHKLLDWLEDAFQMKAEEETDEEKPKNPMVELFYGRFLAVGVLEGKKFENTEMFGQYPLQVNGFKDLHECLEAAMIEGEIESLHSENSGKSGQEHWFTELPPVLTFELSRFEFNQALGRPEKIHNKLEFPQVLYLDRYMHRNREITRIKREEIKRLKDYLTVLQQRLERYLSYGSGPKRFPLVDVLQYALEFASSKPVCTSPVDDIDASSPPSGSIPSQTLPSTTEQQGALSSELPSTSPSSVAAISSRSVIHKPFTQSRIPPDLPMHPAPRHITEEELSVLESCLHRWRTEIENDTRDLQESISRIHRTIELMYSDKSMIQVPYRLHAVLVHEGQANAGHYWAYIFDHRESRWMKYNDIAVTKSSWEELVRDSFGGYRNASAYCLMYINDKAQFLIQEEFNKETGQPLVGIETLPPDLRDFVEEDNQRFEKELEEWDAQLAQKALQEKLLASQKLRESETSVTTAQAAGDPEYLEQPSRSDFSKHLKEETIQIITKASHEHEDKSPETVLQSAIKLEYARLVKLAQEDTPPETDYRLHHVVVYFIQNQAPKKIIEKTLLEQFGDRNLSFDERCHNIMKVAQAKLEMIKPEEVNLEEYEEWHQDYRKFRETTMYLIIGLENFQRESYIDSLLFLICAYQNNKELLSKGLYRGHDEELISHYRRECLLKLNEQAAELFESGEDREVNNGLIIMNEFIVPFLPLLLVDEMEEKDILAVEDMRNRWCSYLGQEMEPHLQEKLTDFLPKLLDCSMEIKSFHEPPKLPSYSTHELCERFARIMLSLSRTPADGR
Description: as §1

[7] = target: T6, panel of 48 purified DUBs (Homo sapiens, UniProt Q93009); test: as above; format: biochemical; details: DUB USP7; screening concentration 5 μM; 5 µM
T6 construct: purchased Ubiquigent (DUBprofiler service)
Description: as §1

[8] = target: T7, panel of 48 purified DUBs (Homo sapiens, UniProt Q86UV5); test: as above; format: biochemical; details: DUB USP48; screening concentration 5 μM; 5 µM
T7 construct: purchased Ubiquigent (DUBprofiler service)
T7 sequence (Q86UV5 whole entry): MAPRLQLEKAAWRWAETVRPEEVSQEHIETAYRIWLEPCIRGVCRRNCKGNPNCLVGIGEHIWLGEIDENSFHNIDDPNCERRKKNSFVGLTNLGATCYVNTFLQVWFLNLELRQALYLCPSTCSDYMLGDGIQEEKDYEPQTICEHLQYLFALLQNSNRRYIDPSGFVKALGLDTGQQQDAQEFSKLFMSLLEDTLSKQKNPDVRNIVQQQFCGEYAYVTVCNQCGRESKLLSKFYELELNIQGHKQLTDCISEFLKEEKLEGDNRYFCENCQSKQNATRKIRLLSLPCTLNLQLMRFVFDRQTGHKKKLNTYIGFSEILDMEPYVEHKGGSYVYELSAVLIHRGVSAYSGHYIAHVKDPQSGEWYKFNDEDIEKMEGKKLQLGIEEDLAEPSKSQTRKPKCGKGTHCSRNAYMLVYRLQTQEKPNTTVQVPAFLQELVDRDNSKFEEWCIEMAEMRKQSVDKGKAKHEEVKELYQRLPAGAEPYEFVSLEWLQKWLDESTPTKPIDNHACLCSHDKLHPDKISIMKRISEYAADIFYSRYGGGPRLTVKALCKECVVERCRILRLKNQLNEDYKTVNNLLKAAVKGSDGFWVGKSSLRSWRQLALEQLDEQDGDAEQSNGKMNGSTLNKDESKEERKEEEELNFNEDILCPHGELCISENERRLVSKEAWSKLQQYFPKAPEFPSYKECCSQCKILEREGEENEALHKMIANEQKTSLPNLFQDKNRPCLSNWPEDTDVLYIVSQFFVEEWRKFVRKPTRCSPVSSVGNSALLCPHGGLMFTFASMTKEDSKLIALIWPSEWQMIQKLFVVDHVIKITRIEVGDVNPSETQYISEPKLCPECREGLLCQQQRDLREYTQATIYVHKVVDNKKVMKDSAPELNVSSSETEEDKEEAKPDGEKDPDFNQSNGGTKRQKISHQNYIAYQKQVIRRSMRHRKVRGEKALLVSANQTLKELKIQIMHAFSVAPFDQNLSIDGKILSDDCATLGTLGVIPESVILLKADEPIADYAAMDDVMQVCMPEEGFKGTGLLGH
Description: as §1

[9] = target: T8, panel of 48 purified DUBs (Homo sapiens, UniProt Q9Y4E8); test: as above; format: biochemical; details: DUB USP15; screening concentration 5 μM; 5 µM
T8 construct: purchased Ubiquigent (DUBprofiler service)
T8 sequence (Q9Y4E8 whole entry): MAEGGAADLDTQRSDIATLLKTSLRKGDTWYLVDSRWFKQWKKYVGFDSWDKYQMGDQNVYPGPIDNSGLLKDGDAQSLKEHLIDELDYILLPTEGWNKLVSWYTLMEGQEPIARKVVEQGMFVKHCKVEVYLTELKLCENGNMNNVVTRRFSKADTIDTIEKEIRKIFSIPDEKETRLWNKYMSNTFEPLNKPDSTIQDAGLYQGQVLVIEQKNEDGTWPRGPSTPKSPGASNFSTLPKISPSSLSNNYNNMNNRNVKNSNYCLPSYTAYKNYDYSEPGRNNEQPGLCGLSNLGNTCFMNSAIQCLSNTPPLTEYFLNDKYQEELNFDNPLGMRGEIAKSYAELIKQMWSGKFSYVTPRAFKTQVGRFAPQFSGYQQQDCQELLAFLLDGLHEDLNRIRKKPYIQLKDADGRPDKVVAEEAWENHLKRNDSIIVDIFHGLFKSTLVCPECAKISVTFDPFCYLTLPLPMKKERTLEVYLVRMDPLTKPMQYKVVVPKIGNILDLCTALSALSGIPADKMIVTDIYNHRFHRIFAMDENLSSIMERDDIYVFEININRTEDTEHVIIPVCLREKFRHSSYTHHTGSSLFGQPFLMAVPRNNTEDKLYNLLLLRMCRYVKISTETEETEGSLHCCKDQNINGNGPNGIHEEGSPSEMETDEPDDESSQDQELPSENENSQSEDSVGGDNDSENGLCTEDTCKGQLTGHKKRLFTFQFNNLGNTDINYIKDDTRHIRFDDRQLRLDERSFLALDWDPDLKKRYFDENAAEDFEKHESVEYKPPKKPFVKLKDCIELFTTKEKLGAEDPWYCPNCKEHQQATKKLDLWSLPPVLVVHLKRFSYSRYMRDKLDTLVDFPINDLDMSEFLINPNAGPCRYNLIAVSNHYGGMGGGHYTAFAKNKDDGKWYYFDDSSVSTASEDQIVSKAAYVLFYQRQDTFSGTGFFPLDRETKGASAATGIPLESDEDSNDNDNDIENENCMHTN
Description: as §1

[10] = target: T9, panel of 48 purified DUBs (Homo sapiens, UniProt Q9P275); test: as above; format: biochemical; details: DUB USP36; screening concentration 5 μM; 5 µM
T9 construct: purchased Ubiquigent (DUBprofiler service)
Description: as §1

[11] = target: T10, panel of 48 purified DUBs (Homo sapiens, UniProt Q9Y2K6); test: as above; format: biochemical; details: DUB USP20; screening concentration 5 μM; 5 µM
T10 construct: purchased Ubiquigent (DUBprofiler service)
T10 sequence (Q9Y2K6 whole entry): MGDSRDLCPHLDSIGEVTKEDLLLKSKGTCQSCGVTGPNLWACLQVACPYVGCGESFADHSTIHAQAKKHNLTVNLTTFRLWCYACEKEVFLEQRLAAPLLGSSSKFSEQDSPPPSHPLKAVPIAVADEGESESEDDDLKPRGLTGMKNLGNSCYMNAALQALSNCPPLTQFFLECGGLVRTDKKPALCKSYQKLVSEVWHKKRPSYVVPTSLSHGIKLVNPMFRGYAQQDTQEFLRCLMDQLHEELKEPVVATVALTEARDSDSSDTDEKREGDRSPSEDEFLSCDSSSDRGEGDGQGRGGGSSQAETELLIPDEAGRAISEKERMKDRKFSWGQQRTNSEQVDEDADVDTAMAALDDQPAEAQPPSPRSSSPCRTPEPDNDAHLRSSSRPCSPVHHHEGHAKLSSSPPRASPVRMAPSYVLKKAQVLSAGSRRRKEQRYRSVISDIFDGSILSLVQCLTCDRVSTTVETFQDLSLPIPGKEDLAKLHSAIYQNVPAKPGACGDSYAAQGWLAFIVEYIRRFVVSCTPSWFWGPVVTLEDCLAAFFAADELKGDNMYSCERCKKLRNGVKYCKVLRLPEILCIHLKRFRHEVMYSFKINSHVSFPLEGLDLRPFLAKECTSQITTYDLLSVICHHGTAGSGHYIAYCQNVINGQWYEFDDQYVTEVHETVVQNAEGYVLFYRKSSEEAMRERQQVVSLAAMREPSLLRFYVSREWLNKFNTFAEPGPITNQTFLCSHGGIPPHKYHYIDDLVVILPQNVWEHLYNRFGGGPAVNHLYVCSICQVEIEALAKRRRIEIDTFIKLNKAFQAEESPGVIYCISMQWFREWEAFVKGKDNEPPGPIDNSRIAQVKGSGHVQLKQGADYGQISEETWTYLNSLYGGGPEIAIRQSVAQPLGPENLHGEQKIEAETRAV
Description: as §1

[12] = target: T11, BRISC (Homo sapiens, UniProt P46736+Q15018+Q9NXR7); test: Compound library screening and hit validation (IQF diubiquitin, 1 nM BRISC); format: biochemical; details: for BRISC, normalised activity (Ext. 1a): two replicate columns
T11 construct: made in house; host or cells: Spodoptera frugiperda (Sf9) insect cells, MultiBac
Description: Assays were performed in 384-well black flat-bottom low-flange plates (Corning, 35373) in buffer containing 50 mM HEPES–NaOH pH 7.0, 100 mM NaCl, 1 mg ml^−1 BSA, 1 mM DTT and 0.03% v/v Brij-35. Then, 10 μl of twofold concentrated enzyme stock was dispensed, followed by transfer of 200 nl of compounds (1 mM stock) using a 384-pin tool and a 15-min incubation at room temperature. Then, 10 μl of twofold concentrated substrate stock was added and the reaction was monitored by measuring fluorescence intensity (excitation, 540 nm; emission, 580 nm) after 20-min incubation at room temperature and ~50% of substrate was consumed. Orthogonal assays for verification of H20 and P12 hit compounds using USP2 (100 nM) and trypsin (125 nM) were performed in identical conditions.

Compound: O=C(NC1C2CNCC21)c1nn(C(=O)c2c(Cl)cccc2Cl)cc1NC(=O)c1c(Cl)cccc1Cl (stereo not drawn) [FX-171-C]
- inhibition of ant BRISC [1]: no inhibition
- Normalised V0 ([1]; FX-171-C 0.013 μM): 0.8962 and 0.9603 and 0.9451 and 1.01 and 0.9065 and 0.9614
- Normalised V0 ([1]; FX-171-C 0.02 μM): 0.8823 and 0.9398 and 0.9125
- Normalised V0 ([1]; FX-171-C 0.0399999 μM): 0.8374 and 1.085 and 0.922
- Normalised V0 ([1]; FX-171-C 0.0599997 μM): 0.96 and 0.9545 and 0.8432
- Normalised V0 ([1]; FX-171-C 0.0799994 μM): 0.96 and 1.021 and 0.8317
- Normalised V0 ([1]; FX-171-C 0.119998 μM): 0.912 and 0.9545 and 0.6902
- Normalised V0 ([1]; FX-171-C 0.199996 μM): 0.9393 and 1.029 and 0.809
- Normalised V0 ([1]; FX-171-C 0.499975 μM): 0.8932 and 0.9706 and 1.16
- Normalised V0 ([1]; FX-171-C 0.799937 μM): 0.8483 and 0.9187 and 0.8448
- Normalised V0 ([1]; FX-171-C 1.25984 μM): 0.9211 and 1.122 and 1.015
- Normalised V0 ([1]; FX-171-C 1.9996 μM): 0.9132 and 0.9123 and 0.84
- Normalised V0 ([1]; FX-171-C 3.159 μM): 0.9417 and 1.133 and 0.9365
- Normalised V0 ([1]; FX-171-C 5.19739 μM): 0.9697 and 1.085 and 0.6282
- Normalised V0 ([1]; FX-171-C 7.99364 μM): 0.932 and 1.064 and 1.2693
- Normalised V0 ([1]; FX-171-C 12.7839 μM): 1.03 and 1.045 and 0.7909
- Normalised V0 ([1]; FX-171-C 19.96 μM): 1.048 and 1.129 and 1.039
- Normalised V0 ([1]; FX-171-C 31.4999 μM): 0.9199 and 1.137 and 0.9151
- Normalised V0 ([1]; FX-171-C 50.147 μM): 0.8823 and 1.1 and 0.9082
- Normalised V0 ([1]; FX-171-C 79.7601 μM): 0.9478 and 0.9802 and 1.294
- Normalised V0 ([1]; FX-171-C 125.99 μM): 0.8064 and 1.008 and 0.9331
- Normalised V0 ([1]; FX-171-C 199.922 μM): 1.048 and 0.9667 and 0.9357

Compound: O=C(NC1CCNCC1)c1nn(C(=O)c2c(Cl)cccc2Cl)cc1NC(=O)c1c(Cl)cccc1Cl [JMS-175-2]
- Activity (% control) [2]: 112 % control and 107 % control
- Activity (% control) [3]: 100 % control and 103 % control
- Activity (% control) [4]: 94 % control and 92 % control
- Activity (% control) [5]: 103 % control and 98 % control
- Activity (% control) [6]: 93 % control and 94 % control
- Activity (% control) [7]: 116 % control and 121 % control
- Activity (% control) [8]: 99 % control and 103 % control
- Activity (% control) [9]: 111 % control and 115 % control
- Activity (% control) [10]: 108 % control and 117 % control
- Activity (% control) [11]: 93 % control and 101 % control
- inhibition of BRISC, hit validation dose response ([12]; BRISC 1 nM): selective inhibition
- BRISC, normalised activity (Ext. 1a) ([12]; log [compound (μM)] 0.1938, listed as H20): 0.7394 and 0.8570
- BRISC, normalised activity (Ext. 1a) ([12]; log [compound (μM)] 0.4949, listed as H20): 0.6725 and 0.7111
- BRISC, normalised activity (Ext. 1a) ([12]; log [compound (μM)] 0.7959, listed as H20): 0.4328 and 0.4373
- BRISC, normalised activity (Ext. 1a) ([12]; log [compound (μM)] 1.0969, listed as H20): 0.3601 and 0.3685
- BRISC, normalised activity (Ext. 1a) ([12]; log [compound (μM)] 1.3979, listed as H20): 0.2929 and 0.2927
- BRISC, normalised activity (Ext. 1a) ([12]; log [compound (μM)] 1.6990, listed as H20): 0.2472 and 0.2252
- BRISC, normalised activity (Ext. 1a) ([12]; log [compound (μM)] 2.0000, listed as H20): 0.2296 and 0.2103
- BRISC, normalised activity (Ext. 1a) ([12]; log [compound (μM)] 2.3010, listed as H20): 0.2316 and 0.1815
- BRISC, normalised activity (Ext. 1a) ([12]; log [compound (μM)] -0.1072, listed as H20): 0.9797 and 1.0152
- BRISC, normalised activity (Ext. 1a) ([12]; log [compound (μM)] -0.4082, listed as H20): 1.0306 and 1.0024
- BRISC, normalised activity (Ext. 1a) ([12]; log [compound (μM)] -0.7093, listed as H20): 1.0136 and 1.0571
- BRISC, normalised activity (Ext. 1a) ([12]; log [compound (μM)] -1.7100, normalisation point): 1.0000
- normalised V0, Mean ([12]; log[compound (μM)] 0.1931): 0.7989
- normalised V0, Mean ([12]; log[compound (μM)] 0.4942): 0.6361
- normalised V0, Mean ([12]; log[compound (μM)] 0.7959): 0.4437
- normalised V0, Mean ([12]; log[compound (μM)] 1.0969): 0.3773
- normalised V0, Mean ([12]; log[compound (μM)] 1.3979): 0.3064
- normalised V0, Mean ([12]; log[compound (μM)] 1.6990): 0.2332
- normalised V0, Mean ([12]; log[compound (μM)] 2.0000): 0.2301
- normalised V0, Mean ([12]; log[compound (μM)] 2.3010): 0.1610
- normalised V0, Mean ([12]; log[compound (μM)] -0.1079): 0.9141
- normalised V0, Mean ([12]; log[compound (μM)] -0.4089): 0.9318
- normalised V0, Mean ([12]; log[compound (μM)] -0.7212): 0.9518
- normalised V0, Mean ([12]; log[compound (μM)] -1.7212, normalisation point): 1.0000

Reference: article PMC7617869, “Molecular glues that inhibit deubiquitylase activity and inflammatory signaling” (Nature Structural & Molecular Biology, 2025)
